Values joined by “and” are separate entries in the source; they are usually repeats but may differ in a detail not shown here. Identical values can stand only once. “Also recorded” adds a separate entry of the source.

The source of these data is patent US20060008891A1, “Cathepsin G-related peptides as modulators of formylpeptide receptors (FPR)” (The Government of USA as repersented by the Secretary, …, priority 2004, published 2006).

In experiment [1] the target is T1, FPR (Homo sapiens, UniProt P21462).
T1 construct: expressed in transfected cells; host or cells: Rat basophilic leukemia (RBL) cells, stably transfected (ETFR cells); gift of H. Ali and R. Snyderman, Duke University
T1 sequence (P21462 1-350): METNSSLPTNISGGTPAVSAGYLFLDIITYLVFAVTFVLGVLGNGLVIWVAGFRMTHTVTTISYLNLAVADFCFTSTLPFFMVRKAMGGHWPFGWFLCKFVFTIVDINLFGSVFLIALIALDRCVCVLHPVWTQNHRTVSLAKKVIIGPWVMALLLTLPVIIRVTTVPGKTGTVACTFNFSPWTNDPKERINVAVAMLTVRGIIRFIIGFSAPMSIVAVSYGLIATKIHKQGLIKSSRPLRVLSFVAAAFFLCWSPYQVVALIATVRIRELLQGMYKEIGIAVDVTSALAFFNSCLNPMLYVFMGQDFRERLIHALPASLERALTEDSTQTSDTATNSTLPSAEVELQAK
The experiment can be described thus: FPR cell surface expression (FACS), ETFR cells and monocytes. Format: cell-based. To be noted: 5 μg/ml CaG or 1 μM fMLF, 37° C. 30 min. Here is the method: Cell surface expression of FPR was monitored by a flow cytometer (FACS). Monocytes and ETFR cells (1×10^6 cells/sample) were pretreated with medium or stimulants at 37° C. for 30 minutes. After two washes with cold FACS buffer (DPBS, 1% FCS, 0.02% sodium azide, and 5 mM EDTA, pH7.4), the cells were blocked with 5% normal rat serum followed by incubation with a monoclonal anti-human FPR antibody or isotype matched IgG on ice for 30 min. After three washes with FACS buffer, FITC-labeled rat anti-mouse antibody (PharMingen) was applied and incubated on ice for 30 min. The cells were then washed twice with FACS buffer and analyzed immediately by flow cytometry (Becton Dickinson, San Jose, Calif.).

Experiment [2] has as its system monocytes. The experiment can be described thus: Calcium flux (Fura-2), monocytes. Format: cell-based, human. Here is the method:
(§1) Monocytes or ETFR cells (10^7 cells/ml in RPMI 1640 containing 10% FBS) were loaded with 5 μM Fura-2 at room temperature (30 min for monocytes, 60 min for ETFR cells) in the dark. The cells were washed and resuspended (0.5×10^6 cells/ml) in saline buffer (138 mM NaCl, 6 mM KCl, 1 mM CaCl2, 10 mM HEPES, 5 mM glucose, and 1% BSA, pH 7.4). Two milliliters of the cell suspension were transferred to a quartz cuvette, which was placed in a luminescence spectrometer LS55 (Perkin-Elmer, Beaconsfield, UK). Calcium mobilization was measured by recording the ratio of the fluorescence excited at 340 and 380 nm in response to stimulants.
Background: Calcium flux is commonly read through the fluorescence of an indicator in the cells.

In another experiment the test system is PKCζ. The experiment in a line: PKCζ translocation in ETFR cells (confocal microscopy). The format is cell-based, rat. As to conditions: 100 nM fMLF, 10 μg/ml CaG or PMA 500 nM, 37° C. 10 min. The method, then: ETFR cells were seeded on coverslips and cultured overnight in DMEM containing 1% FCS at 37° C. After further culture in FCS-free DMEM for 3 h, cells were treated with stimulants for indicated time periods at 37° C. and were then fixed in 4% paraformaldehyde for 5 min at room temperature. The cells were permeabilized with 0.2% Tween 20 for 30 min at 4° C. and the reaction was blocked with 5% goat normal serum for 15 min at room temperature. The rabbit anti-PKCα/β, δ, and ξ, antibodies (1:1000 in DPBS) were applied separately for 1 h at room temperature. After three rinses with DPBS, the cells were stained with FITC-labeled goat anti-rabbit secondary antibody (PharMingen, 1:1000 in DPBS) for 1 h at room temperature. The coverslips were mounted with an anti-fade, water-based mounting medium with Propidium Iodide (PI) (Vector Lab, Burlingamem, Calif.) and analyzed under a laser scanning confocal fluorescence microscope (Zeiss LSM510 NLO Meta, Jena, Germany). Excitation wavelengths 488 (for FITC) and 568 (for PI) nm were used to generate fluorescence emission in green and red, respectively.

In another experiment the test system is parental RBL cells. The experiment can be described thus: 125I-CaG binding to parental RBL cells. To be noted: 25 nM 125I-CaG. Further details: species or system rat. The method, then: CaG was iodinated with a chrolamine-T method (Lofstrand Labs, Gaithersburg, Md.) with a specific activity of […] protein. Duplicate samples of ETFR cells or the parental RBL cells (2×10^6 cells in 200 μl RPMI 1640 containing 1% bovine serum albumin, 25 mM Hepes, and 0.05% NaN3) were incubated with 25 nM ^125I-CaG, in the presence of increasing concentrations of unlabeled ligands. After incubation and rotation at room temperature for 1 h, the cells were pelleted through a 10% sucrose/PBS cushion for 1 min at 10,000 g. The supernatant was removed and the radioactivity associated with cell pellets was measured in a γ counter (CliniGamma, Pharmacia Biotech Inc.). The binding data were analyzed with a Macintosh computer-aided program LIGAND (Dr. P. Munson, Division of Computer Research and Technology, NIH, Bethesda, Md.).

Experiment [3] has as its system monocytes. The experiment in a line: Chemotaxis assay, monocytes. Format: cell-based, human. Here is the method: Human PBMC were isolated from leukopacks obtained through the courtesy of Transfusion Medicine Department, National Institutes of Health Clinical Center (Bethesda, Md.) by Ficoll-Hypaque density gradient centrifugation. Monocytes were purified from human PBMC by Percoll gradient to yield>90% pure preparations. […] H. Ali and R. Snyderman, Duke University (Durham, N.C.) and maintained in the presence of 0.8 mg/ml geneticin (G418, Life Technologies, Rockville, Md.) in DMEM supplemented with 10% FCS. B. Chemotaxis assay Migration of phagocytes and ETFR cells was assessed using a 48-well microchemotaxis chamber (Neuroprobe, Cabin John, Md.) as previously described (Hu et al. (2001) J Leukoc Biol 70 15512). Briefly, different concentrations of stimulants were placed in the wells of the lower compartment of the chamber, and 50 μl cells (1.5×10^6 cells/ml for monocyte and neutrophil, 1×10^6 ETFR cells/ml) were added to the wells of the upper compartment. The lower and upper compartments were separated by either a 5-μm (for monocyte) or a 10-μm pore size, collagen-coated (for ETFR cells) polycarbonate filter (Osmonics, Livermore, Calif.). After incubation at 37° C. in humidified air with 5% CO2 (60 min for neutrophils, 90 min for monocytes, 4.5 h for ETFR cells), the filter was removed and stained, and the cells migrating across the filter were counted with light microscopy. The results are presented as the mean number of cells (±SD) in three high power fields (HPFs). […] After thorough washing with cold medium (RPMI 1640, 1% BSA), the cells were resuspended and assayed. To measure the effect of various signaling inhibitors, unless otherwise indicated, the cells were pre-incubated at 37° C. for 60 min with the inhibitors, and were then added to the upper wells of the chemotaxis chamber.

Experiment [4] has as its target T1, FPR. The experiment can be described thus: Calcium flux (Fura-2), ETFR cells. Format: cell-based. As to conditions: CaG 10 μg/ml. Here is the method: as §1

Turning to “CaG: Cathepsin G, serine protease purified from neutrophil granules, purchased from Athens Research & Technology”, in the experiment with FPR [1], the “down-regulation of FPR from the cell surface” value is listed as “weaker, but significant ability of CaG to down-regulate FPR”. Also, the “Ca2+ flux” value with monocytes [2] (CaG 10 μg/ml) is reported as “failed to induce significant Ca^2+ flux”; with FPR [4], “weak inducer of Ca^2+ flux; also recorded: induced a measurable level of Ca flux”. Besides, the “attenuation of Ca2+ response to fMLF” value was “attenuated cell response induced by low concentrations of fMLF; also recorded: significantly attenuated cell response to 0.1 nM fMLF” in the experiment on monocytes [2] (CaG 10 μg/ml, 0.1 nM fMLF) and “attenuated cell response induced by low concentrations of fMLF; also recorded: significantly attenuated cell response to 0.1 nM fMLF” in the experiment with FPR [4] (0.1 nM fMLF). In the experiment on monocytes [2] (concentrations up to 20 μg/ml (800 nM)), the “Ca2+ mobilizing activity” value was “lacked significant Ca^2+ mobilizing activity”. Moreover, the “translocation of PKCζ” value with PKCζ is “a substantial proportion of PKCξ translocated to the cell membrane region”. Moreover, the “specific binding of 125I-CaG to parental RBL cells” value in the experiment with parental RBL cells is on record as “no measurable levels of specific binding”. Further, the “concentration of maximal activity in monocyte migration” value in the experiment on monocytes [3] (human monocytes) was 5 μg/ml and 200 nM. In addition, the “monocyte migration induced by stimulant” value with monocytes [3] (human monocytes) was “dose-dependently induced monocyte migration”. For the same substance, in the experiment on monocytes [3] (monocytes), the “concentration range potently chemotactic” value fell in the range of 4 to 400 nM. Besides, in the experiment on monocytes [3] (preincubated with CaG 10 μg/ml 30 min 37° C., low concentrations of fMLF), the “attenuation of monocyte chemotaxis to fMLF after preincubation” value is listed as “able to attenuate monocyte chemotaxis to low concentrations of fMLF”.
